The values below come from patent US20220324835A1 (Nurix Therapeutics, Inc., priority 2018, published 2022).

Assay [1] concerns T-cell. Briefly: CD25 cell surface staining on T-cells stimulated with anti-CD3 antibody alone (Biological Example 2). It counts as cell-based, human. The following applies: T-cell, fold change over baseline, primary human total T-cells, read-out: CD25 staining Anti-CD3 stimulation; for fold induction at 1 µM: 1 μM Cbl-b inhibitor; for fold induction at 8 µM: 8 μM Cbl-b inhibitor.

In assay [2] the test system is T-cell. Briefly: IL-2 secretion from T-cells stimulated with anti-CD3 antibody alone (Biological Example 2). It counts as cell-based, human. The following applies: T-cell, fold change over baseline, primary human total T-cells, read-out: IL-2 secretion Anti-CD3 stimulation; for fold induction at 1 µM: 1 μM Cbl-b inhibitor; for fold induction at 8 µM: 8 μM Cbl-b inhibitor.

With `C[C@H](Sc1nncn1C)c1cccc(NC(=O)c2cc(C(=O)N3CC(O)C3)ccn2)c1` [Compound 148, (S)-4-(3-hydroxyazetidine-1-carbonyl)-N-(3-(1-((4-methyl-4H-1,2,4-triazol-3-yl)thio)ethyl)phenyl)picolinamide], in assay [1], the fold induction at 1 µM is under 0.6 and the fold induction at 8 µM lay in the range of 0.601 to 0.8. Moreover, in assay [2], the fold induction at 1 µM is under 0.05 and the fold induction at 8 µM was under 0.05.
On to `C[C@H](Sc1nncn1C)c1cccc(NC(=O)c2cc(C(=O)N3C[C@H](O)C[C@@H]3C)ccn2)c1` [Compound 151, 4-((2S,4R)-4-hydroxy-2-methylpyrrolidine-1-carbonyl)-N-(3-((S)-1-((4-methyl-4H-1,2,4-triazol-3-yl)thio)ethyl)phenyl)picolinamide], for which, in assay [1], the fold induction at 1 µM was under 0.6 and the fold induction at 8 µM fell in the range of 0.601 to 0.8. In assay [2], the fold induction at 1 µM is under 0.05 and the fold induction at 8 µM was under 0.05.
Regarding `C[C@H](Sc1nncn1C)c1cccc(N2Cc3c(cccc3C(F)(F)F)C2=O)c1` [Compound 166a, (S)-2-(3-(1-((4-methyl-4H-1,2,4-triazol-3-yl)thio)ethyl)phenyl)-4-(trifluoromethyl)isoindolin-1-one], in assay [1], the fold induction at 1 µM was in the range of 0.601 to 0.8 and the fold induction at 8 µM lay within 0.801 to 1. Moreover, in assay [2], the fold induction at 1 µM is under 0.05 and the fold induction at 8 µM is under 0.05.
With `C[C@H](Sc1nncn1C)c1cccc(N2Cc3c(ccnc3Cl)C2=O)c1` [Compound 167, 4-chloro-2-[3-[(1S)-1-[(4-methyl-1,2,4-triazol-3-yl)sulfanyl]ethyl]phenyl]-3H-pyrrolo[3,4-c]pyridin-1-one], the figures for the fold induction at 1 µM in assay [1] and in assay [2] were under 0.6 and under 0.05, respectively. Moreover, the fold induction at 8 µM in assay [1] is 0.601 to 0.8; in assay [2] it was 0.101 to 0.15.
The matching figures for `CC(Sc1nncn1C)c1cc(F)cc(N2Cc3c(cccc3C(F)(F)F)C2=O)c1` [Compound 168, 2-[3-fluoro-5-[(1R)-1-[(4-methyl-1,2,4-triazol-3-yl)sulfanyl]ethyl]phenyl]-4-(trifluoromethyl)isoindolin-1-one]: 0.801 to 1, under 0.05, 0.601 to 0.8 and 0.051 to 0.1.
Regarding `C[C@H](Sc1nncn1C)c1cc(F)cc(N2Cc3c(cccc3C(F)(F)F)C2=O)c1` [Compound 168a, 2-[3-fluoro-5-[(1S)-1-[(4-methyl-1,2,4-triazol-3-yl)sulfanyl]ethyl]phenyl]-4-(trifluoromethyl)isoindolin-1-one], the figures for the fold induction at 1 µM in assay [1] and in assay [2] were under 0.6 and under 0.05, respectively. For the same compound, the results for the fold induction at 8 µM in assay [1] and in assay [2] were 0.801 to 1 and under 0.05, respectively.
On to `C[C@H](Sc1nncn1C)c1ccnc(N2Cc3c(cccc3C(F)(F)F)C2=O)c1` [Compound 172a, (S)-(4-(1-((4-methyl-4H-1,2,4-triazol-3-yl)thio)ethyl)pyridin-2-yl)-4-(trifluoromethyl)isoindolin-1-one], for which, in assay [1], the fold induction at 1 µM was under 0.6 and the fold induction at 8 µM is under 0.6. In addition, in assay [2], the fold induction at 1 µM is under 0.05 and the fold induction at 8 µM was under 0.05.
For `C[C@H](Cc1nncn1C)c1cccc(NC(=O)c2cccc(S(C)(=O)=O)n2)c1` [Compound 185, (R)-N-(3-(1-(4-methyl-4H-1,2,4-triazol-3-yl)propan-2-yl)phenyl)-6-(methylsulfonyl)picolinamide], the fold induction at 1 µM was under 0.6 in assay [1] and 0.051 to 0.1 in assay [2]. Also, the fold induction at 8 µM in assay [1] was under 0.6; in assay [2] it was 0.051 to 0.1.
For the compound `C[C@H](Cc1nncn1C)c1cccc(NC(=O)c2cc(C(C)(C)O)c(Cl)cn2)c1` [Compound 186, (R)-5-chloro-4-(2-hydroxypropan-2-yl)-N-(3-(1-(4-methyl-4H-1,2,4-triazol-3-yl)propan-2-yl)phenyl)picolinamide], in assay [1], the fold induction at 1 µM is under 0.6 and the fold induction at 8 µM was under 0.6. In assay [2], the fold induction at 1 µM lay within 0.051 to 0.1 and the fold induction at 8 µM fell in the range of 0.101 to 0.15.
With `C[C@H](Cc1nncn1C)c1cccc(NC(=O)c2cccc(C(F)(F)CO)n2)c1` [Compound 188, (R)-6-(1,1-difluoro-2-hydroxyethyl)-N-(3-(1-(4-methyl-4H-1,2,4-triazol-3-yl)propan-2-yl)phenyl)picolinamide], the fold induction at 1 µM in assay [1] is under 0.6; in assay [2], under 0.05. Also, the values for the fold induction at 8 µM in assay [1] and in assay [2] were under 0.6 and 0.051 to 0.1, respectively.
For `C[C@H](Cc1nncn1C)c1cccc(NC(=O)c2cncc(C(F)(F)F)n2)c1` [Compound 189, (R)-N-(3-(1-(4-methyl-4H-1,2,4-triazol-3-yl)propan-2-yl)phenyl)-6-(trifluoromethyl)pyrazine-2-carboxamide], the fold induction at 1 µM lay within 0.601 to 0.8 in assay [1] and 0.051 to 0.1 in assay [2]. The fold induction at 8 µM in assay [1] is over 1; in assay [2], 0.051 to 0.1.
Take `C[C@H](Cc1nncn1C)c1cccc(NC(=O)c2cc(C3(O)COC3)cc(C(F)(F)F)n2)c1` [Compound 190, (R)-4-(3-hydroxyoxetan-3-yl)-N-(3-(1-(4-methyl-4H-1,2,4-triazol-3-yl)propan-2-yl)phenyl)-6-(trifluoromethyl)picolinamide]: the results for the fold induction at 1 µM in assay [1] and in assay [2] were 0.601 to 0.8 and under 0.05, respectively. Further, the fold induction at 8 µM in assay [1] was over 1; in assay [2] it was 0.101 to 0.15.
Consider `C[C@H](Cc1nncn1C)c1cccc(NC(=O)c2cc(S(C)(=O)=O)cc(C3CC3)n2)c1` [Compound 198, 6-cyclopropyl-N-[3-[(1R)-1-methyl-2-(4-methyl-1,2,4-triazol-3-yl)ethyl]phenyl]-4-methylsulfonyl-pyridine-2-carboxamide], for which, in assay [1], the fold induction at 1 µM fell in the range of 0.801 to 1 and the fold induction at 8 µM was over 1. For the same compound, in assay [2], the fold induction at 1 µM was in the range of 0.101 to 0.15 and the fold induction at 8 µM was over 0.201.
For `C[C@H](Cc1nncn1C)c1cccc(NC(=O)c2cc(S(N)(=O)=O)cc(C(F)(F)F)n2)c1` [Compound 200, (R)-N-(3-(1-(4-methyl-4H-1,2,4-triazol-3-yl)propan-2-yl)phenyl)-4-sulfamoyl-6-(trifluoromethyl)picolinamide], in assay [1], the fold induction at 1 µM fell in the range of 0.801 to 1 and the fold induction at 8 µM was over 1. Also, in assay [2], the fold induction at 1 µM is under 0.05 and the fold induction at 8 µM was 0.051 to 0.1.
As to `CNS(=O)(=O)c1cc(C(=O)Nc2cccc([C@H](C)Cc3nncn3C)c2)nc(C(F)(F)F)c1` [Compound 201, (R)-N-(3-(1-(4-methyl-4H-1,2,4-triazol-3-yl)propan-2-yl)phenyl)-4-(N-methylsulfamoyl)-6-(trifluoromethyl)picolinamide], in assay [1], the fold induction at 1 µM was in the range of 0.801 to 1 and the fold induction at 8 µM was over 1. For the same compound, in assay [2], the fold induction at 1 µM lay within 0.151 to 0.2 and the fold induction at 8 µM was over 0.201.
As to `C[C@H](Cc1nncn1C)c1cccc(NC(=O)c2cc(O[C@H]3CC[C@@H](O)C3)ccn2)c1` [Compound 206, 4-((1S,3R)-3-hydroxycyclopentyloxy)-N-(3-((R)-1-(4-methyl-4H-1,2,4-triazol-3-yl)propan-2-yl)phenyl)picolinamide], in assay [1], the fold induction at 1 µM was 0.801 to 1 and the fold induction at 8 µM lay within 0.801 to 1. Moreover, in assay [2], the fold induction at 1 µM was under 0.05 and the fold induction at 8 µM was 0.051 to 0.1.
For `Cc1ccc(C(=O)Nc2cccc([C@H](C)Cc3nnc[nH]3)c2)nc1C1CC1` [Compound 212, (R)-N-(3-(1-(4H-1,2,4-triazol-3-yl)propan-2-yl)phenyl)-6-cyclopropyl-5-methylpicolinamide], the fold induction at 1 µM in assay [1] was under 0.6; in assay [2], under 0.05. The fold induction at 8 µM in assay [1] was under 0.6; in assay [2], under 0.05.
As for `Cc1conc1C[C@@H](C)c1cccc(NC(=O)c2ccnc(C(F)(F)F)n2)c1` [Compound 213a, (R)-N-(3-(1-(4-methylisoxazol-3-yl)propan-2-yl)phenyl)-2-(trifluoromethyl)pyrimidine-4-carboxamide], in assay [1], the fold induction at 1 µM lay in the range of 0.801 to 1 and the fold induction at 8 µM is over 1. In assay [2], the fold induction at 1 µM fell in the range of 0.051 to 0.1 and the fold induction at 8 µM is 0.101 to 0.15.
The matching figures for `C[C@H](Cc1nncn1C)c1cccc(NC(=O)c2cc(C(=O)N3CC[C@](C)(O)C3)ccn2)c1` [Compound 222, 4-((S)-3-hydroxy-3-methylpyrrolidine-1-carbonyl)-N-(3-((R)-1-(4-methyl-4H-1,2,4-triazol-3-yl)propan-2-yl)phenyl)picolinamide]: under 0.6, under 0.6, under 0.05 and under 0.05.
On to `C[C@H](Cc1nncn1C)c1cccc(NC(=O)c2cc(C(=O)N3C[C@@H](O)C[C@H]3C)ccn2)c1` [Compound 224, 4-((2R,4S)-4-hydroxy-2-methylpyrrolidine-1-carbonyl)-N-(3-((R)-1-(4-methyl-4H-1,2,4-triazol-3-yl)propan-2-yl)phenyl)picolinamide], for which, in assay [1], the fold induction at 1 µM was under 0.6 and the fold induction at 8 µM is under 0.6. In assay [2], the fold induction at 1 µM is 0.101 to 0.15 and the fold induction at 8 µM was in the range of 0.101 to 0.15.
Take `C[C@H](Cc1nncn1C)c1cccc(NC(=O)c2cc(C(=O)N3C[C@@H](O)[C@H](F)C3)ccn2)c1` [Compound 240, 4-((3R,4R)-3-fluoro-4-hydroxypyrrolidine-1-carbonyl)-N-(3-((K)-1-(4-methyl-4H-1,2,4-triazol-3-yl)propan-2-yl)phenyl)picolinamide]: in assay [1], the fold induction at 1 µM fell in the range of 0.601 to 0.8 and the fold induction at 8 µM lay in the range of 0.801 to 1. In addition, in assay [2], the fold induction at 1 µM lay within 0.151 to 0.2 and the fold induction at 8 µM was over 0.201.
